Results: ChEMBL document CHEMBL4373717, “Coumarin-containing hybrids and their anticancer activities” (Eur J Med Chem, 2019)
Values after ≈ are worked out from the molar mass of the structure shown. Blank lines part the entries; values can stand above or below the molecule they belong to.

How the values were obtained:
[1] = test system: HCT-116; test: Cytotoxicity against human HCT116 cells assessed as reduction in cell viability after 96 hrs by MTT assay; format: functional, cell-based; settings: HCT-116, 96 h
[2] = test system: MDA-MB-231; test: Cytotoxicity against human MDA-MB-231 cells assessed as reduction in cell viability after 96 hrs by MTT assay; format: functional, cell-based; settings: MDA-MB-231, 96 h
[3] = test system: HT-29; test: Cytotoxicity against human HT-29 cells assessed as reduction in cell viability after 96 hrs by MTT assay; format: functional, cell-based; settings: HT-29, 96 h
[4] = test system: AGS; test: Growth inhibition of human AGS cells; format: functional
[5] = Growth inhibition of human KATO III cells; format: functional
[6] = test system: SNU1; test: Growth inhibition of human SNU1 cells; format: functional
[7] = test system: SK-OV-3; test: Growth inhibition of human SKOV3 cells; format: functional
[8] = test system: OVCAR-8; test: Growth inhibition of human OVCAR8 cells; format: functional
[9] = test system: BXPC-3; test: Growth inhibition of human BxPC3 cells; format: functional
[10] = test system: PANC-1; test: Growth inhibition of human PANC1 cells; format: functional
[11] = test system: T-24; test: Growth inhibition of human T24 cells; format: functional
[12] = test system: WiDr; test: Growth inhibition of human WiDr cells; format: functional
[13] = test system: HepG2; test: Growth inhibition of human HepG2 cells; format: functional
[14] = test system: SN12C; test: Growth inhibition of human SN12C cells; format: functional
[15] = test system: MCF7; test: Growth inhibition of human MCF7 cells; format: functional
[16] = target: Vascular endothelial growth factor receptor 2 (Homo sapiens, UniProt P35968); test: Inhibition of VEGFR2 (unknown origin)
Vascular endothelial growth factor receptor 2, sequence (P35968 whole entry): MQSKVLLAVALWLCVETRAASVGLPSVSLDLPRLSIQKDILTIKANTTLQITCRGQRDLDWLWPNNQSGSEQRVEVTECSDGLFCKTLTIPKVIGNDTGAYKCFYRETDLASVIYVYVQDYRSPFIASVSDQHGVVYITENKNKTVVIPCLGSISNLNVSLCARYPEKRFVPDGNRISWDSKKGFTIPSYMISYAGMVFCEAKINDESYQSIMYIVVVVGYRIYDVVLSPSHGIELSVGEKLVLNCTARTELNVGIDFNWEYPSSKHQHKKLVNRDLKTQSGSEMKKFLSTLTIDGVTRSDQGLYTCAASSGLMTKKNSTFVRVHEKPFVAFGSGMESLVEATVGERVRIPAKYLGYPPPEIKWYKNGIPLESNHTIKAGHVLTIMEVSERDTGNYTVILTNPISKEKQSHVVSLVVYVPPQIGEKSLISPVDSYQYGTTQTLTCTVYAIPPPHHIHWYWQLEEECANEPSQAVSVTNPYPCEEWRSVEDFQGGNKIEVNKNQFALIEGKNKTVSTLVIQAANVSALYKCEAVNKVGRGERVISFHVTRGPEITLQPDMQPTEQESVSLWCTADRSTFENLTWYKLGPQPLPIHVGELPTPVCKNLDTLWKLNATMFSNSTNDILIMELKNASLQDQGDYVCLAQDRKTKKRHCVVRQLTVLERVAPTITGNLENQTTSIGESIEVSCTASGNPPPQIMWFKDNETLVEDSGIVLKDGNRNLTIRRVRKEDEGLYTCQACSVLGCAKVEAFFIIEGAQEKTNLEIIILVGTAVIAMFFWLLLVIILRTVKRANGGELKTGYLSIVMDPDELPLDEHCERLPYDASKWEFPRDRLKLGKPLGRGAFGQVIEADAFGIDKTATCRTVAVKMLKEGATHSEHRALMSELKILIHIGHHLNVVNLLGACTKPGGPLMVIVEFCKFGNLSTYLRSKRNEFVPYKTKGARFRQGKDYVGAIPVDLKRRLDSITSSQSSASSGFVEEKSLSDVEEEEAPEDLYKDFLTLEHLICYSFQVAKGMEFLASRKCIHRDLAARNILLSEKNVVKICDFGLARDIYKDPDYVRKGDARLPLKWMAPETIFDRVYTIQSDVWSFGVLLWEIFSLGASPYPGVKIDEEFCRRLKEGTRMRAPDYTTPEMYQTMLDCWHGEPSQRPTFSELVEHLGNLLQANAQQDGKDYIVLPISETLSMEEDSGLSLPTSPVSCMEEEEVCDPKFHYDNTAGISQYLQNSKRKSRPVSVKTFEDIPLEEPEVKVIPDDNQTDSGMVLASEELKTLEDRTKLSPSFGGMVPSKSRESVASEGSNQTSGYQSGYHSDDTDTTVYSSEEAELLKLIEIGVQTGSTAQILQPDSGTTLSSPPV

[17] = test system: DLD-1; test: Cytotoxicity against human DLD1 cells assessed as reduction in cell viability; format: functional, cell-based
[18] = test system: MCF7; test: Cytotoxicity against human MCF7 cells assessed as reduction in cell viability; format: functional, cell-based
[19] = test system: HeLa; test: Cytotoxicity against human HeLa cells assessed as reduction in cell viability after 72 hrs by MTT assay; format: functional, cell-based
[20] = test system: Caco-2; test: Cytotoxicity against human Caco2 cells assessed as reduction in cell viability after 72 hrs by MTT assay; format: functional, cell-based; settings: Caco-2, 72 h
[21] = test system: K562; test: Cytotoxicity against human K562 cells assessed as reduction in cell viability after 72 hrs by MTT assay; format: functional, cell-based; settings: K562, 72 h
[22] = test system: HepG2; test: Anticancer activity against human HepG2 cells by CCK8 assay; format: functional, cell-based
[23] = test system: Hep 3B2; test: Anticancer activity against human Hep3B cells by CCK8 assay; format: functional, cell-based
[24] = test system: A2780; test: Anticancer activity against human A2780 cells by CCK8 assay; format: functional, cell-based
[25] = test system: OVCAR-3; test: Anticancer activity against human OVCAR3 cells by CCK8 assay; format: functional, cell-based
[26] = test system: MDA-MB-231; test: Cytotoxicity against human MDA-MB-231 cells assessed as reduction in cell viability; format: functional, cell-based
[27] = test system: Ishikawa; test: Cytotoxicity against human Ishikawa cells assessed as reduction in cell viability; format: functional, cell-based
[28] = test system: A549; test: Cytotoxicity against human A549 cells assessed as reduction in cell viability by MTT assay; format: functional, cell-based
[29] = test system: MCF7; test: Cytotoxicity against human MCF7 cells assessed as reduction in cell viability by MTT assay; format: functional, cell-based; settings: Homo sapiens, MCF7
[30] = test system: MCF7; test: Cytotoxicity against human MCF7 cells assessed as reduction in cell viability after 48 hrs by MTT assay; format: functional, cell-based; settings: MCF7, 48 h
[31] = test system: HepG2; test: Cytotoxicity against human HepG2 cells assessed as reduction in cell viability after 48 hrs by MTT assay; format: functional, cell-based; settings: HepG2, 48 h
[32] = test system: SK-MEL-28; test: Cytotoxicity against human SK-MEL-28 cells assessed as reduction in cell viability after 24 hrs by MTT assay; format: functional, cell-based; settings: SK-MEL-28, 24 h
[33] = test system: BT-20; test: Cytotoxicity against human BT20 cells assessed as reduction in cell viability after 24 hrs by MTT assay; format: functional, cell-based; settings: BT-20, 24 h
[34] = test system: DU-145; test: Cytotoxicity against human DU145 cells assessed as reduction in cell viability after 24 hrs by MTT assay; format: functional, cell-based; settings: DU-145, 24 h
[35] = test system: A549; test: Cytotoxicity against human A549 cells assessed as reduction in cell viability after 24 hrs by MTT assay; format: functional, cell-based; settings: A549, 24 h
[36] = test system: PC-3; test: Cytotoxicity against human PC3 cells assessed as reduction in cell viability by MTT assay; format: functional, cell-based
[37] = test system: HT-29; test: Cytotoxicity against human HT-29 cells assessed as reduction in cell viability by MTT assay; format: functional, cell-based
[38] = test system: HeLa; test: Cytotoxicity against human HeLa cells assessed as reduction in cell viability by MTT assay; format: functional, cell-based
[39] = Toxicity in mouse assessed as mouse survival (reference value: 14.5 days); settings: in vivo, 348 h
[40] = test system: COS-7; test: Cytotoxicity against African green monkey COS7 cells assessed as reduction in cell viability by MTT assay; format: functional, cell-based; settings: Chlorocebus aethiops

SMILES: C[C@H]1[C@@H](OCc2cn(Cc3cc(=O)oc4cc(O)ccc34)nn2)O[C@@H]2O[C@@]3(C)CC[C@H]4[C@H](C)CC[C@@H]1[C@@]24OO3
IC50 [1]: 8.57 to 100 µM
IC50 [2]: 8.57 to 100 µM
IC50 [3]: 8.57 to 100 µM

GI50 [4]: 0.07 to 3.57 µM
GI50 [6]: 0.07 to 3.57 µM
GI50 [7]: 0.07 to 3.57 µM
GI50 [8]: 0.07 to 3.57 µM
GI50 [9]: 0.07 to 3.57 µM
GI50 [10]: 0.07 to 3.57 µM
GI50 [13]: 0.07 to 3.57 µM
GI50 [15]: > 10 µM
SMILES: Cc1ccc2[nH]c(-c3cc4ccccc4oc3=O)nc2c1
GI50 [5]: 0.07 to 3.57 µM
GI50 [11]: 0.07 to 3.57 µM
GI50 [12]: 0.07 to 3.57 µM
GI50 [14]: 0.07 to 3.57 µM

IC50 [16]: 0.034 to 0.582 µM
SMILES: CN(C)c1ccc(C2CC(c3cc4ccccc4oc3=O)=NN2c2nc(-c3ccccc3)c(/N=N/c3ccc(Cl)cc3)s2)cc1 (stereo unspecified)
IC50 [17]: 114 to 129 µM
IC50 [18]: 5.41 to 6.56 µM

SMILES: Cc1ccc2c(Cn3cc(CO[C@H]4O[C@@H]5O[C@@]6(C)CC[C@H]7[C@H](C)CC[C@@H]([C@H]4C)[C@@]57OO6)nn3)cc(=O)oc2c1
IC50 [1]: 8.57 to 100 µM
IC50 [2]: 8.57 to 100 µM
IC50 [3]: 8.57 to 100 µM

SMILES: COc1ccc(-c2cn(Cc3cc(=O)oc4cc(O)c(O)cc34)nn2)cc1
IC50 [19]: 9.7 to 81.9 µM
IC50 [20]: 9.7 to 81.9 µM
IC50 [21]: 9.7 to 81.9 µM

IC50 [22]: > 100 µM
IC50 [24]: > 100 µM
IC50 [25]: > 100 µM
SMILES: O=c1ccc2ccccc2o1 [COUMARIN]
IC50 [23]: > 100 µM

SMILES: CCN(CC)c1ccc2cc(C(=O)N3CCN(CCC[C@H]4O[C@@H]5O[C@@]6(C)CC[C@H]7[C@H](C)CC[C@@H]([C@H]4C)[C@@]57OO6)CC3)c(=O)oc2c1
IC50 [22]: 3.05 to 5.82 µM
IC50 [23]: 3.05 to 5.82 µM
IC50 [24]: 3.05 to 5.82 µM
IC50 [25]: 3.05 to 5.82 µM

GI50 [4]: 0.07 to 3.57 µM
GI50 [6]: 0.07 to 3.57 µM
GI50 [7]: 0.07 to 3.57 µM
GI50 [8]: 0.07 to 3.57 µM
GI50 [9]: 0.07 to 3.57 µM
GI50 [10]: 0.07 to 3.57 µM
GI50 [13]: 0.07 to 3.57 µM
GI50 [15]: > 10 µM
SMILES: COc1ccc2oc(=O)c(-c3nc4cc(OC)ccc4[nH]3)cc2c1
GI50 [5]: 0.07 to 3.57 µM
GI50 [11]: 0.07 to 3.57 µM
GI50 [12]: 0.07 to 3.57 µM
GI50 [14]: 0.07 to 3.57 µM

SMILES: CCOC(=O)c1cc2cc(-c3nc4cc(C)ccn4c3NC(C)(C)C)cc(C(C)C)c2oc1=O
IC50 [26]: 14.1 to 50 µM
IC50 [27]: 14.1 to 50 µM
IC50 [18]: 14.1 to 50 µM

SMILES: O=C(CNCc1cccnc1)Nc1cc2ccccc2oc1=O
IC50 [28]: 69.1 to 378 µM
IC50 [29]: 69.1 to 378 µM

SMILES: COc1ccc(-c2csc(-n3nc(C)cc3-c3cc4cc(Cl)ccc4oc3=O)n2)cc1
IC50 [30]: 4.03 to 31.5 µM
IC50 [31]: 3.06 to 3.74 µM

SMILES: Cc1cc(-c2cc3cc(Cl)ccc3oc2=O)n(-c2nc(-c3ccc(Cl)cc3)cs2)n1
IC50 [30]: 4.03 to 31.5 µM
IC50 [31]: 3.06 to 3.74 µM

SMILES: CCN(CC)c1ccc2cc(C(=O)NNC(=O)Cn3nc(Cc4ccc(Cl)c(Cl)c4)[nH]c3=O)c(=O)oc2c1
IC50 [32]: 3.1 to 37.9 µg/mL (≈ 5.54 to 67.7 µM)
IC50 [33]: 3.1 to 37.9 µg/mL (≈ 5.54 to 67.7 µM)
IC50 [34]: 3.1 to 37.9 µg/mL (≈ 5.54 to 67.7 µM)
IC50 [35]: 3.1 to 37.9 µg/mL (≈ 5.54 to 67.7 µM)

SMILES: Cc1ccc2oc(=O)cc(Cn3cc(CO[C@H]4O[C@@H]5O[C@@]6(C)CC[C@H]7[C@H](C)CC[C@@H]([C@H]4C)[C@@]57OO6)nn3)c2c1
IC50 [1]: 8.57 to 100 µM
IC50 [2]: 8.57 to 100 µM
IC50 [3]: 8.57 to 100 µM

SMILES: O=C(Cn1nc(Cc2ccc(Cl)c(Cl)c2)[nH]c1=O)NNC(=O)c1cc2cc(Cl)ccc2oc1=O
IC50 [32]: 3.1 to 37.9 µg/mL (≈ 5.93 to 72.5 µM)
IC50 [33]: 3.1 to 37.9 µg/mL (≈ 5.93 to 72.5 µM)
IC50 [34]: 3.1 to 37.9 µg/mL (≈ 5.93 to 72.5 µM)
IC50 [35]: 3.1 to 37.9 µg/mL (≈ 5.93 to 72.5 µM)

SMILES: Cc1cc(C)c2c(Cn3cc(CO[C@H]4O[C@@H]5O[C@@]6(C)CC[C@H]7[C@H](C)CC[C@@H]([C@H]4C)[C@@]57OO6)nn3)cc(=O)oc2c1
IC50 [1]: 8.57 to 100 µM
IC50 [2]: 8.57 to 100 µM
IC50 [3]: 8.57 to 100 µM

SMILES: COc1ccc2oc(=O)c(/C=C3\SC(=O)N(C(=O)c4ccc(Cl)cc4)C3=O)cc2c1
IC50 [36]: 0.95 to 3.2 µM
IC50 [37]: 0.95 to 3.2 µM
IC50 [28]: 0.95 to 3.2 µM
IC50 [38]: 0.95 to 3.2 µM
IC50 [29]: 0.95 to 3.2 µM

SMILES: O=c1oc2ccccc2cc1-c1csc(N/N=C/c2c3ccccc3c(Cl)c3ccccc23)n1
Survival [39]: 45.5 days
IC50 [40]: 1.29 to 1.96 µM
IC50 [38]: 1.29 to 1.96 µM
IC50 [18]: 1.29 to 1.96 µM
